Experimental findings from article PMC9516332 (Frontiers in Oncology, 2022) are described below.

Experiment in all cases: Kinase panel profiling at 1 µmol/L (MSA or IMAP), percentage inhibition
Type in all cases: biochemical

Assay [1] deals with panel of 255 wild-type kinases (Homo sapiens, UniProt P04626). The following applies: kinase HER2; 1 µmol/L single concentration; read-out: %-inhibition at 1 µmol/L, HER2.
The target in assay [2] is panel of 255 wild-type kinases (Homo sapiens, UniProt P11362). Conditions: kinase FGFR1; 1 µmol/L single concentration; read-out: %-inhibition at 1 µmol/L, FGFR1.
Assay [3] addresses panel of 255 wild-type kinases (Homo sapiens, UniProt P16591). Conditions: kinase FER; 1 µmol/L single concentration; read-out: %-inhibition at 1 µmol/L, FER.
Assay [4] deals with panel of 255 wild-type kinases (Homo sapiens, UniProt P24941). Conditions: 1 µmol/L single concentration.
Assay [5] has as its target T1, panel of 255 wild-type kinases (Homo sapiens, UniProt P36888).
T1 sequence (P36888 27-993): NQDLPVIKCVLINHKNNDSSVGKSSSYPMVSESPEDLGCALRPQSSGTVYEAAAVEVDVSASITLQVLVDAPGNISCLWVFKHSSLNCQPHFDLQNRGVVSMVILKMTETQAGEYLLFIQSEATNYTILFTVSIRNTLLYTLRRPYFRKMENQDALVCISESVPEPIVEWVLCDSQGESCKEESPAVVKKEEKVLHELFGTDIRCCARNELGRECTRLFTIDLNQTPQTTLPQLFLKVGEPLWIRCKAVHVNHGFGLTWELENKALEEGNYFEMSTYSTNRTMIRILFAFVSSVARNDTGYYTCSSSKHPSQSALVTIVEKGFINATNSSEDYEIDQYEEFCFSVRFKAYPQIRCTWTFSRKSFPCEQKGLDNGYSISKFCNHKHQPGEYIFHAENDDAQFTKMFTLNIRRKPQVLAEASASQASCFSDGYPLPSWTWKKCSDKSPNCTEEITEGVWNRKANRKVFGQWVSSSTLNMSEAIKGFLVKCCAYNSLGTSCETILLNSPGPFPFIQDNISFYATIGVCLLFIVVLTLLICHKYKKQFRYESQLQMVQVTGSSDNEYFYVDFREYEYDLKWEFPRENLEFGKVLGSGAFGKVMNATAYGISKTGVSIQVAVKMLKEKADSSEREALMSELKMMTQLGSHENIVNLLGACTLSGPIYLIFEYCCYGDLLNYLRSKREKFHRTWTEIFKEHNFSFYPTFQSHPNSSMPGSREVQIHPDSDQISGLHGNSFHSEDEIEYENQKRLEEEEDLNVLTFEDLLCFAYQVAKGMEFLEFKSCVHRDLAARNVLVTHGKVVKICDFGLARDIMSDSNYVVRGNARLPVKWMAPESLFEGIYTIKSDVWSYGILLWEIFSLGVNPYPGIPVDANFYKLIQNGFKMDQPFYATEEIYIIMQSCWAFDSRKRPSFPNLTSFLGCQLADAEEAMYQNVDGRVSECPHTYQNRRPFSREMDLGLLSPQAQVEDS
The following applies: kinase FLT3; 1 µmol/L single concentration; read-out: %-inhibition at 1 µmol/L, FLT3.

The target of assay [6] is panel of 255 wild-type kinases (Homo sapiens, UniProt P49761). The following applies: kinase CLK3; 1 µmol/L single concentration; read-out: %-inhibition at 1 µmol/L, CLK3.
For assay [7], the target named is panel of 255 wild-type kinases (Homo sapiens, UniProt P49841). Conditions: kinase GSK3β; 1 µmol/L single concentration.
The target of assay [8] is panel of 255 wild-type kinases (Homo sapiens, UniProt Q04759). The following applies: kinase PKCθ; 1 µmol/L single concentration; read-out: %-inhibition at 1 µmol/L, PKCθ.
Assay [9] deals with T2, panel of 255 wild-type kinases (Homo sapiens, UniProt Q06418).
T2 sequence (Q06418 41-890): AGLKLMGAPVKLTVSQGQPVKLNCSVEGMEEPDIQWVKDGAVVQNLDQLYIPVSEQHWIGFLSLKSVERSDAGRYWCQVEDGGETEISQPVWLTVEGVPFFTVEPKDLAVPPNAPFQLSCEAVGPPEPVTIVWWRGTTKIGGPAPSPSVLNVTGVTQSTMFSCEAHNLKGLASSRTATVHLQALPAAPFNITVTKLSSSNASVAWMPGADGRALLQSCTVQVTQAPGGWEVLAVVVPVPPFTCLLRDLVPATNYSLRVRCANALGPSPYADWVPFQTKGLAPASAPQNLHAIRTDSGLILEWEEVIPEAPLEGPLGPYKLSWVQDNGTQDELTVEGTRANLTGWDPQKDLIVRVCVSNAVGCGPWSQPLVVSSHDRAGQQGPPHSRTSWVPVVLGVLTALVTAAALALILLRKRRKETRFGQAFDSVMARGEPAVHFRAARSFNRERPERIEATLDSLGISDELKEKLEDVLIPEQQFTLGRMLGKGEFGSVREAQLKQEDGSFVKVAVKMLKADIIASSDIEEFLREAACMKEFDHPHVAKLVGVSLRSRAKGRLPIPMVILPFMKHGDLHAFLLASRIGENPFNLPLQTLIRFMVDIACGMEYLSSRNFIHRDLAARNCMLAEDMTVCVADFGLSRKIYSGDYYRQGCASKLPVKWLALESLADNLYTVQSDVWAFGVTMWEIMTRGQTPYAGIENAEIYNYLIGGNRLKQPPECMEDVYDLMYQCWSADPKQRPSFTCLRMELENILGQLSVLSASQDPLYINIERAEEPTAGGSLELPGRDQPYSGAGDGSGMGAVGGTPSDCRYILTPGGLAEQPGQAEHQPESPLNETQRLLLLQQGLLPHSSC
The following applies: kinase TYRO3; 1 µmol/L single concentration; read-out: %-inhibition at 1 µmol/L, TYRO3.

The target in assay [10] is panel of 255 wild-type kinases (Homo sapiens, UniProt Q13131). Conditions: AMPKα1/β1/γ1 kinase assay; 1 µmol/L single concentration; read-out: %-inhibition AMPKα1/β1/γ1.
Assay [11] deals with panel of 255 wild-type kinases (Homo sapiens, UniProt Q96GD4). The following applies: read-out: %-inhibition AurB.
The target of assay [12] is panel of 255 wild-type kinases (Homo sapiens, UniProt Q9Y6E0). Conditions: MST3; 1 µmol/L single concentration; read-out: %-inhibition, MST3.
Setting [13] is: CDK2/CycA2 kinase assay, read-out: %-inhibition CDK2/CycA2.
The mark [14] stands for this setting: CDK2/CycE1 kinase assay, read-out: %-inhibition CDK2/CycE1.
The mark [15] stands for this setting: AurB kinase assay, 1 µmol/L single concentration.

SMILES strings stand for the structures. Where two headings read alike, the source gives them in different places.

In the case of `COc1cc2ncnc(Nc3ccc(F)c(Cl)c3)c2cc1NC(=O)/C=C/CN1CCCCC1` [dacomitinib], the inhibition at 1 µM is 100% in assay [1]; 8% in assay [2]; 6.35% in assay [3]; -13% in assay [4] (setting [13]); -16% in assay [4] (setting [14]); 56% in assay [5]. Besides, the inhibition at 1 µM is 2.5% in assay [6]; 11% in assay [7]; 1.57% in [8]; 27% in [9]; -12% in assay [10]; 2% in assay [11] (setting [15]). In addition, the inhibition at 1 µM in assay [12] turned out to be 27%.
Regarding `C[C@H](Nc1ncnc2nc[nH]c12)c1cc2cccc(Cl)c2c(=O)n1-c1ccccc1` [duvelisib], the inhibition at 1 µM in assay [1] was 19%; in assay [2], -0.103%; in assay [3], -1.81%; in assay [4] (setting [13]), -0.854%; in assay [4] (setting [14]), -11%; in assay [5] it was 10%. In addition, the inhibition at 1 µM in [6] is 1.78%; in assay [7], -0.808%; in assay [8] it was 1.09%; in assay [9], 6%; in assay [10] it was -4%; in assay [11] (setting [15]) it was 0.417%. Further, the inhibition at 1 µM in assay [12] stood at 0.418%.
Turning to `COC(=O)N[C@@H](C)CNc1nccc(-c2cn(C(C)C)nc2-c2cc(Cl)cc(NS(C)(=O)=O)c2F)n1` [encorafenib], the inhibition at 1 µM is 4.47% in assay [1]; 4.27% in assay [2]; 5% in assay [3]; 5.57% in [4] (setting [13]); -9% in assay [4] (setting [14]); 9% in assay [5]. In addition, the inhibition at 1 µM in assay [6] was 4.44%; in assay [7], 92%; in [8] it was 2%; in assay [9] it was 8%; in assay [10], -2.31%; in assay [11] (setting [15]) it was -0.69%. The inhibition at 1 µM in assay [12] turned out to be 7%.
`CCc1nc(C(N)=O)c(Nc2ccc(N3CCC(N4CCN(C)CC4)CC3)c(OC)c2)nc1NC1CCOCC1` [gilteritinib]: the inhibition at 1 µM in assay [1] turned out to be 15%; in assay [2] it was 55%; in assay [3], 99%; in assay [4] (setting [13]), 27%; in [4] (setting [14]), 17%; in assay [5], 99%. In addition, the inhibition at 1 µM stood at 7% in [6]; 4% in [7]; 12% in assay [8]; 93% in [9]; 0.625% in assay [10]; 64% in [11]. For the same compound, the inhibition at 1 µM in assay [12] was 5%.
As to `O=C(Nc1cnn2ccc(N3CCC[C@@H]3c3cc(F)ccc3F)nc12)N1CC[C@H](O)C1` [larotrectinib], the inhibition at 1 µM in [1] is -2.32%; in assay [2], -2%; in assay [3] it was 3.72%; in [4] (setting [13]), -2.44%; in assay [4] (setting [14]) it was -18%; in assay [5], 6%. Moreover, the inhibition at 1 µM in assay [6] is -3.43%; in assay [7], -11%; in assay [8] it was -2.77%; in assay [9], 5.58%; in assay [10] it was -5.64%; in assay [11] (setting [15]), -4.57%. Besides, in assay [12], the inhibition at 1 µM is 1.65%.
On to `FC(F)(F)c1ccc(CNc2ccc(Cc3c[nH]c4ncc(Cl)cc34)cn2)cn1` [pexidartinib], for which the inhibition at 1 µM in assay [1] was 6%; in assay [2] it was 45%; in [3], 21%; in assay [4] (setting [13]), 12%; in [4] (setting [14]), -4%; in assay [5], 55%. For the same compound, the inhibition at 1 µM was 18% in assay [6]; 4.44% in assay [7]; 3.27% in assay [8]; 10% in assay [9]; -11% in [10]; 60% in assay [11] (setting [15]). The inhibition at 1 µM in assay [12] turned out to be 5%.
